Results: paper PMC8185074, “Anchor extension: a structure-guided approach to design cyclic peptides targeting enzyme active sites” (Nature Communications, 2021)
Entries after “also recorded” stand apart in the source; their conditions may differ. Blank lines part the entries; values can stand above or below the compound they belong to. Peptide text beside a SMILES is read from it.

Tests used:
Assay type in all cases: biochemical
HDAC3 = biological target: T1, HDAC3 (Homo sapiens, UniProt O15379); assay: HDAC3 inhibition, full IC50 measurement (Reaction Biology; fluorogenic p53 peptide RHKK(Ac)AMC)
T1 construct: purchased Reaction Biology Corporation (assay run by the CRO)
Outline: (§1)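 Test peptides were dispensed acoustically with enzyme in 50 mM Tris-HCl pH 8.0, 137 mM NaCl, 2.7 mM KCl, 1 mM MgCl2, 1 mg/ml BSA and 1% DMSO. After adding 50 μM RHKK(Ac)AMC, reactions ran 1 h at 30 °C, then developer was added.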

HDAC2 [1] = biological target: T2, HDAC2 (Homo sapiens, UniProt Q92769); assay: HDAC2 inhibition, full IC50 measurement (Reaction Biology; fluorogenic p53 peptide RHKK(Ac)AMC)
T2 construct: purchased Reaction Biology Corporation (assay run by the CRO)
Outline: as §1

HDAC4 = biological target: T3, HDAC4 (Homo sapiens, UniProt P56524); assay: HDAC4 inhibition/binding test (BPS Biosciences HDAC fluorogenic assay kit)
T3 construct: purchased BPS Biosciences

HDAC11 = biological target: T4, HDAC11 (Homo sapiens, UniProt Q96DB2); assay: HDAC11 profiling of SHA anchor
T4 sequence (Q96DB2 1-347): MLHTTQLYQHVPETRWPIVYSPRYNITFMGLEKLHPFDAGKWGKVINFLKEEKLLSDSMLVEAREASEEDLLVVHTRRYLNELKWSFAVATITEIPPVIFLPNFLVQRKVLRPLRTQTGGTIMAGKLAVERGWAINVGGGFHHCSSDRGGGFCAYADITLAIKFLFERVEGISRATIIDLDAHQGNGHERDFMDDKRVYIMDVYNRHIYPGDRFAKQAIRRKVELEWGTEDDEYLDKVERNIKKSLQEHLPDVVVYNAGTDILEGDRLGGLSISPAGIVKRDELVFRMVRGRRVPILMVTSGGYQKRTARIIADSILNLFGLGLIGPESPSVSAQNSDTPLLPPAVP

HDAC2 [2] = biological target: T2, HDAC2; assay: Initial HDAC2 IC50 estimate (BPS Biosciences HDAC fluorogenic assay kit)
Outline: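 Inhibition measured by kit-based fluorogenic HDAC activity assays, with each point in duplicate or triplicate. Values come from a full 1 µM–100 pM series (1:10 steps) or are range estimates from just 20 nM and 200 nM.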

HDAC9 = HDAC9 (Homo sapiens, UniProt Q9UKV0); assay: HDAC9 profiling of SHA anchor and early peptides
[3] = Supplementary Dataset 2, read-out: HDAC2 activity (initial activity)

T1 sequence (O15379 whole entry): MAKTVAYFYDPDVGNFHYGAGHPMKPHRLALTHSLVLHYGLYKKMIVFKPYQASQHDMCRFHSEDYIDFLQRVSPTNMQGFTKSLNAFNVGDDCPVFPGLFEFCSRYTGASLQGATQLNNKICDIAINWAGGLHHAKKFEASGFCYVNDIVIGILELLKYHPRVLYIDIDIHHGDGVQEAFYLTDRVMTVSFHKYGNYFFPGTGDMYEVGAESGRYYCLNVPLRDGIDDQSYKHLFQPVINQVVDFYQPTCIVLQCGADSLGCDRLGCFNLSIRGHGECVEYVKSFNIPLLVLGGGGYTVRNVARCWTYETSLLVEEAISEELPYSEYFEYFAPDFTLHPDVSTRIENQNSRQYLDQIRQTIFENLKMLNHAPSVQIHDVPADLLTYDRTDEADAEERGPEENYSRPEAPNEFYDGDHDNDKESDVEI
T1 sequence (Q9Y618 395-489 partner limits assumed): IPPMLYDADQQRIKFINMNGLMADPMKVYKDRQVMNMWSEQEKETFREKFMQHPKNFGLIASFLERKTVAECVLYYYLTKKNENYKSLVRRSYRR
T3 sequence (P56524 whole entry): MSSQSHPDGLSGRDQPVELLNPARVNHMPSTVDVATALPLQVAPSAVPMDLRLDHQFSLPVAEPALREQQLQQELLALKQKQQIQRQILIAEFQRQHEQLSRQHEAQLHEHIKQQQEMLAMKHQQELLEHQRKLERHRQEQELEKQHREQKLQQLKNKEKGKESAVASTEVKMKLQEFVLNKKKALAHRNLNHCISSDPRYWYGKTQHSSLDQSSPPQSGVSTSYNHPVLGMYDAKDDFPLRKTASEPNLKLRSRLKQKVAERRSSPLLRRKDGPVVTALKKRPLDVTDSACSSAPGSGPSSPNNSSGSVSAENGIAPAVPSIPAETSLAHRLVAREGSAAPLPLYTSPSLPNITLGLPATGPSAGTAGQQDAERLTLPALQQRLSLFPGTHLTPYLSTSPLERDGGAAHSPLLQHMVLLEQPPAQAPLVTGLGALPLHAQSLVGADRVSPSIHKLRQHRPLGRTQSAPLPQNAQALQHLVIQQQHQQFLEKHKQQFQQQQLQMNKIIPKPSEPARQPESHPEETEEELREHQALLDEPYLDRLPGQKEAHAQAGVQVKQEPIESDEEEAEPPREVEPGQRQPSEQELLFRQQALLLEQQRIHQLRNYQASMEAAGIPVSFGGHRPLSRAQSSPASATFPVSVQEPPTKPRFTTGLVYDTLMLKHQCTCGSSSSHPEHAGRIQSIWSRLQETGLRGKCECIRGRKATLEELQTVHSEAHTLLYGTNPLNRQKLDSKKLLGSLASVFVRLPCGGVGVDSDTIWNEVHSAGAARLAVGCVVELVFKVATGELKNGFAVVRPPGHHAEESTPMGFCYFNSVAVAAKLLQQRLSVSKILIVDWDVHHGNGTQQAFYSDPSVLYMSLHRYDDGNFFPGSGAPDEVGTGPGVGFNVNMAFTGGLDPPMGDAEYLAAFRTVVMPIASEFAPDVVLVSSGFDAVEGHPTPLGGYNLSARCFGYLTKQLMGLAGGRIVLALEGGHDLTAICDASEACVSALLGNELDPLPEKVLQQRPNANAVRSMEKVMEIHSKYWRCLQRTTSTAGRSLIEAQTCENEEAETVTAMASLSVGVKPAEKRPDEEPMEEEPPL
T2 sequence (Q92769 whole entry): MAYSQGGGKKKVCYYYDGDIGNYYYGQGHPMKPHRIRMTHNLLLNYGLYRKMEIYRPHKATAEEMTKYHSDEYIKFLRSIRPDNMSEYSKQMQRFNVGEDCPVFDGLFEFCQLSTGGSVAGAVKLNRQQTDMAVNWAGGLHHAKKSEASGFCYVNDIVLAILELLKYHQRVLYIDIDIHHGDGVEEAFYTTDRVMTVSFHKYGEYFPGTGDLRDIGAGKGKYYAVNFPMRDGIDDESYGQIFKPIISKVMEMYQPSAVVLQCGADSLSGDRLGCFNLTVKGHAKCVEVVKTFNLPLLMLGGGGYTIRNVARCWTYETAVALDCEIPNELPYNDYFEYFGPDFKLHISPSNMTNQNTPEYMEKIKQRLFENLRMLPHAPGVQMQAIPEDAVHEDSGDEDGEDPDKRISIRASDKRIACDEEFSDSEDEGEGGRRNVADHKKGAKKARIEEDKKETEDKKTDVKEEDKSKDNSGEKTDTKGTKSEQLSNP
Chain of HDAC9 (Q9UKV0 whole entry): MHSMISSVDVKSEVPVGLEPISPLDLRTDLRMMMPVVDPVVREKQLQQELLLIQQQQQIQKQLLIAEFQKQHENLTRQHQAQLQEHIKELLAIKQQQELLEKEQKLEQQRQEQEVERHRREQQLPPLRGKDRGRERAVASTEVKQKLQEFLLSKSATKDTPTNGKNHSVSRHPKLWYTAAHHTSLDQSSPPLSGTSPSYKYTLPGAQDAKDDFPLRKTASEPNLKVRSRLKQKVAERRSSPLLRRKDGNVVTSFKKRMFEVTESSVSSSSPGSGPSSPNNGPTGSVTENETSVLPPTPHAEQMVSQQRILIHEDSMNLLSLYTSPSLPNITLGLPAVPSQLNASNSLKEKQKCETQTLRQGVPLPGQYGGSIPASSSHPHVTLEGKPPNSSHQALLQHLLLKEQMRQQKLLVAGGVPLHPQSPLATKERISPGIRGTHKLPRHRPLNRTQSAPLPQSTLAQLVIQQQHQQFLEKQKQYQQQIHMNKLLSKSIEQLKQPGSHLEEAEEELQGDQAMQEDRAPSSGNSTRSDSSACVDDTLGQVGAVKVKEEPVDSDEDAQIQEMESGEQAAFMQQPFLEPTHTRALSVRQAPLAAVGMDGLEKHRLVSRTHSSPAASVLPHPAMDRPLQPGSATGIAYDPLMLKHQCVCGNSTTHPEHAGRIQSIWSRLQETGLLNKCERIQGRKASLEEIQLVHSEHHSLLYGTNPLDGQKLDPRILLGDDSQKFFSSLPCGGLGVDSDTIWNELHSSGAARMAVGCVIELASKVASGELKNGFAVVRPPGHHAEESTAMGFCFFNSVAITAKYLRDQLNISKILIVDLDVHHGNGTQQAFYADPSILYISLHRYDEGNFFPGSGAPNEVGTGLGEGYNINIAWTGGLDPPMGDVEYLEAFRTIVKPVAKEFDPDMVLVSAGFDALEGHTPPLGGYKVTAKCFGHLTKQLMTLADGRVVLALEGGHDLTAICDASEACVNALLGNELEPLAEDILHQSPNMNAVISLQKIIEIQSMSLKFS

HDAC3 raw activity signal (HDAC3; Conc. 1.00E-05 M): 305013
HDAC3 raw activity signal (HDAC3; Conc. 1.11E-06 M): 772070
HDAC3 raw activity signal (HDAC3; Conc. 1.23E-07 M): 916440
HDAC3 raw activity signal (HDAC3; Conc. 1.37E-08 M): 1023518
HDAC3 raw activity signal (HDAC3; Conc. 1.52E-09 M): 969054
HDAC3 raw activity signal (HDAC3; Conc. 3.33E-06 M): 650146
HDAC3 raw activity signal (HDAC3; Conc. 3.70E-07 M): 835487
HDAC3 raw activity signal (HDAC3; Conc. 4.12E-08 M): 896484
HDAC3 raw activity signal (HDAC3; Conc. 4.57E-09 M): 995503
HDAC3 raw activity signal (HDAC3; Conc. 5.08E-10 M): 959845
HDAC2 raw activity signal (HDAC2 [1]; Conc. 1.00E-05 M): 210566
HDAC2 raw activity signal (HDAC2 [1]; Conc. 1.11E-06 M): 643731
HDAC2 raw activity signal (HDAC2 [1]; Conc. 1.23E-07 M): 728862
HDAC2 raw activity signal (HDAC2 [1]; Conc. 1.37E-08 M): 787686
HDAC2 raw activity signal (HDAC2 [1]; Conc. 1.52E-09 M): 708004
HDAC2 raw activity signal (HDAC2 [1]; Conc. 3.33E-06 M): 523867
HDAC2 raw activity signal (HDAC2 [1]; Conc. 3.70E-07 M): 682189
HDAC2 raw activity signal (HDAC2 [1]; Conc. 4.12E-08 M): 772929
HDAC2 raw activity signal (HDAC2 [1]; Conc. 4.57E-09 M): 735698
HDAC2 raw activity signal (HDAC2 [1]; Conc. 5.08E-10 M): 743884
IC50 (HDAC2 [1]; read-out: HDAC2 IC50): 5.4 µM
binding to HDAC4 (HDAC4): not detected binding
HDAC4 raw activity signal (HDAC4; Conc. 1.00E-05 M): 1818034
HDAC4 raw activity signal (HDAC4; Conc. 1.11E-06 M): 1589038
HDAC4 raw activity signal (HDAC4; Conc. 1.23E-07 M): 1682923
HDAC4 raw activity signal (HDAC4; Conc. 1.37E-08 M): 1569641
HDAC4 raw activity signal (HDAC4; Conc. 1.52E-09 M): 1604062
HDAC4 raw activity signal (HDAC4; Conc. 3.33E-06 M): 1651123
HDAC4 raw activity signal (HDAC4; Conc. 3.70E-07 M): 1661788
HDAC4 raw activity signal (HDAC4; Conc. 4.12E-08 M): 1863011
HDAC4 raw activity signal (HDAC4; Conc. 4.57E-09 M): 1554862
HDAC4 raw activity signal (HDAC4; Conc. 5.08E-10 M): 1555289
binding to HDAC11 (HDAC11): no binding
HDAC11 raw activity signal (HDAC11; Conc. 1.00E-05 M): 857709
HDAC11 raw activity signal (HDAC11; Conc. 1.11E-06 M): 1073570
HDAC11 raw activity signal (HDAC11; Conc. 1.23E-07 M): 1094662
HDAC11 raw activity signal (HDAC11; Conc. 1.37E-08 M): 1209318
HDAC11 raw activity signal (HDAC11; Conc. 1.52E-09 M): 1051037
HDAC11 raw activity signal (HDAC11; Conc. 3.33E-06 M): 847001
HDAC11 raw activity signal (HDAC11; Conc. 3.70E-07 M): 1077158
HDAC11 raw activity signal (HDAC11; Conc. 4.12E-08 M): 1064044
HDAC11 raw activity signal (HDAC11; Conc. 4.57E-09 M): 1134026
HDAC11 raw activity signal (HDAC11; Conc. 5.08E-10 M): 1061165
IC50 (HDAC2 [2]; [3]): 5 µM
HDAC9 raw activity signal (HDAC9; Conc. 1.00E-05 M): 866095
HDAC9 raw activity signal (HDAC9; Conc. 1.11E-06 M): 1324190
HDAC9 raw activity signal (HDAC9; Conc. 1.23E-07 M): 1424055
HDAC9 raw activity signal (HDAC9; Conc. 1.37E-08 M): 1252931
HDAC9 raw activity signal (HDAC9; Conc. 1.52E-09 M): 1327312
HDAC9 raw activity signal (HDAC9; Conc. 3.33E-06 M): 1253108
HDAC9 raw activity signal (HDAC9; Conc. 3.70E-07 M): 1495255
HDAC9 raw activity signal (HDAC9; Conc. 4.12E-08 M): 1362638
HDAC9 raw activity signal (HDAC9; Conc. 4.57E-09 M): 1400560
HDAC9 raw activity signal (HDAC9; Conc. 5.08E-10 M): 1258385
Compound: N[C@@H](CCCCCS)C(=O)O [SHA, 2S-2-amino-7-sulfanylheptanoic acid]
HDAC3 inhibition potency in words (HDAC3): low micro-molar to high nano-molar affinities
HDAC2 inhibition potency in words (HDAC2 [1]): low micro-molar to high nano-molar affinities
binding to HDAC9 (HDAC9): not detected binding; also recorded: no binding

Compound: N=C(N)NCCC[C@@H]1NC(=O)[C@@H](CCCNC(=N)N)NC(=O)[C@H]2CCCN2C(=O)[C@@H](Cc2c[nH]cn2)NC(=O)[C@H](Cc2ccc(O)cc2)NC(=O)[C@H](CCCCCS)NC(=O)[C@H](CCc2ccccc2)NC(=O)[C@@H](CO)NC(=O)[C@H](CC(=O)O)NC1=O [des3.3.1, SHA-Tyr-dHis-dPro-dArg-Arg-Asp-dSer-C27] (HELM PEPTIDE1{[O=C([C@H](CCCCCS)N[*:1])[*:2]].Y.[dH].[dP].[dR].R.D.[dS].[O=C([C@H](CCc1ccccc1)N[*:1])[*:2]]}$PEPTIDE1,PEPTIDE1,1:R1-9:R2$$$V2.0)
HDAC3 activity raw data (signal) (HDAC3; Conc. 1.00E-05 M, t1): -3010
HDAC3 activity raw data (signal) (HDAC3; Conc. 1.00E-05 M, t2): -2975
HDAC3 activity raw data (signal) (HDAC3; Conc. 1.11E-06 M, t1): -3312
HDAC3 activity raw data (signal) (HDAC3; Conc. 1.11E-06 M, t2): 10427
HDAC3 activity raw data (signal) (HDAC3; Conc. 1.23E-07 M, t1): 21751
HDAC3 activity raw data (signal) (HDAC3; Conc. 1.23E-07 M, t2): 40450
HDAC3 activity raw data (signal) (HDAC3; Conc. 1.37E-08 M, t1): 79797
HDAC3 activity raw data (signal) (HDAC3; Conc. 1.37E-08 M, t2): 111435
HDAC3 activity raw data (signal) (HDAC3; Conc. 1.52E-09 M, t1): 143913
HDAC3 activity raw data (signal) (HDAC3; Conc. 1.52E-09 M, t2): 186935
HDAC3 activity raw data (signal) (HDAC3; Conc. 3.33E-06 M, t1): -4595
HDAC3 activity raw data (signal) (HDAC3; Conc. 3.33E-06 M, t2): 4931
HDAC3 activity raw data (signal) (HDAC3; Conc. 3.70E-07 M, t1): 9528
HDAC3 activity raw data (signal) (HDAC3; Conc. 3.70E-07 M, t2): 17560
HDAC3 activity raw data (signal) (HDAC3; Conc. 4.12E-08 M, t1): 66179
HDAC3 activity raw data (signal) (HDAC3; Conc. 4.12E-08 M, t2): 74103
HDAC3 activity raw data (signal) (HDAC3; Conc. 4.57E-09 M, t1): 114353
HDAC3 activity raw data (signal) (HDAC3; Conc. 4.57E-09 M, t2): 144441
HDAC3 activity raw data (signal) (HDAC3; Conc. 5.08E-10 M, t1): 223427
HDAC3 activity raw data (signal) (HDAC3; Conc. 5.08E-10 M, t2): 239829
HDAC2 activity raw data (signal) (HDAC2 [1]; Conc. 1.00E-06 M, t1): 33408
HDAC2 activity raw data (signal) (HDAC2 [1]; Conc. 1.00E-06 M, t2): 20115
HDAC2 activity raw data (signal) (HDAC2 [1]; Conc. 1.11E-07 M, t1): 236730
HDAC2 activity raw data (signal) (HDAC2 [1]; Conc. 1.11E-07 M, t2): 242180
HDAC2 activity raw data (signal) (HDAC2 [1]; Conc. 1.23E-08 M, t1): 774356
HDAC2 activity raw data (signal) (HDAC2 [1]; Conc. 1.23E-08 M, t2): 764329
HDAC2 activity raw data (signal) (HDAC2 [1]; Conc. 1.37E-09 M, t1): 1033572
HDAC2 activity raw data (signal) (HDAC2 [1]; Conc. 1.37E-09 M, t2): 1142758
HDAC2 activity raw data (signal) (HDAC2 [1]; Conc. 1.52E-10 M, t1): 1093848
HDAC2 activity raw data (signal) (HDAC2 [1]; Conc. 1.52E-10 M, t2): 1228270
HDAC2 activity raw data (signal) (HDAC2 [1]; Conc. 3.33E-07 M, t1): 99662
HDAC2 activity raw data (signal) (HDAC2 [1]; Conc. 3.33E-07 M, t2): 91701
HDAC2 activity raw data (signal) (HDAC2 [1]; Conc. 3.70E-08 M, t1): 494195
HDAC2 activity raw data (signal) (HDAC2 [1]; Conc. 3.70E-08 M, t2): 473509
HDAC2 activity raw data (signal) (HDAC2 [1]; Conc. 4.12E-09 M, t1): 948142
HDAC2 activity raw data (signal) (HDAC2 [1]; Conc. 4.12E-09 M, t2): 1005576
HDAC2 activity raw data (signal) (HDAC2 [1]; Conc. 4.57E-10 M, t1): 1113632
HDAC2 activity raw data (signal) (HDAC2 [1]; Conc. 4.57E-10 M, t2): 1221209
HDAC2 activity raw data (signal) (HDAC2 [1]; Conc. 5.08E-11 M, t1): 1186904
HDAC2 activity raw data (signal) (HDAC2 [1]; Conc. 5.08E-11 M, t2): 1232500
IC50 (HDAC2 [2]; Supp. Table 4, rough estimates, for promising hits full measurements, read-out: HDAC2 activity (initial values for HDAC2 IC50)): 0.025 µM
IC50 (HDAC2 [2]; [3]): 0.02 µM
